{"source": "patent EP0258006A2", "about": "“Monoclonal antibodies reactive with chlorinated dibenzo-p-dioxins and method of preparing and using same” (WE[…] CORPORATION, priority 1986, dated 1988)", "key": {"[1]": {"system": "monoclonal antibodies reactive with 2,3,7,8-TCDD in hybridoma culture supernatants (the 6 of 384 cultures positive by CIEIA)", "assay": "competitive inhibition enzyme immunoassay (CIEIA) of hybridoma culture supernatants", "format": "binding, BALB/c mice", "conditions": "culture supernatants preincubated with 1.0 × 10⁻⁴ M 2,3,7,8-TCDD; plates coated with BSA-adipamidoyl,3,7,8-trichlorodibenzo-p-dioxin conjugate; 6 positive cultures; 100 µM"}, "[2]": {"system": "ATCC HB 9183 antibody (monoclonal antibody, IgG1, produced by hybridoma ATCC HB 9183)", "assay": "competitive inhibition enzyme immunoassay (CIEIA) with ATCC HB 9183 culture supernatant", "format": "binding, BALB/c mice", "conditions": "1:5 dilution of culture supernatant preincubated 1 hour at room temperature with various concentrations of TCDD; linear curve in Figure 3"}}, "data": [{"smiles": "Clc1cc2c(cc1Cl)Oc1cc(Cl)c(Cl)cc1O2", "note": "[2,3,7,8-TCDD, 2,3,7,8-tetrachlorodibenzo-p-dioxin]", "values": [{"measurement": "inhibition of antibody binding to the solid phase-bound conjugate", "setting": "[1]", "value": "at least 50%"}, {"measurement": "binding of antibody to free TCDD (CIEIA, Figure 3)", "setting": "[2]", "value": "binds directly to free TCDD"}]}]}
